The values below come from a flash point compilation (Sun et al. 2020).

Experiment in data set [1]: not given
The source holds these as a separate data set.

Experiment in data set [2]: not given
This is another data set of the same source.

Experiment in data set [3]: not given
The source holds these as a separate data set.

Experiment in data set [4]: not given
The source holds these as a separate data set.

Experiment in data set [5]: not given
The source holds these as a separate data set.

Consider `C[C@@H]1CCCC[C@H]1C` (relative stereo) [trans-1,2-dimethylcyclohexane], for which the flash point stood at 7 °C. The flash point in data set [1] amounted to 6 °C.
As for `Cc1cc(C)c(C)c(C)c1` [1,2,3,5-tetramethylbenzene], the flash point is 63 °C.
`CCc1cccc(CC)c1CC` [1,2,3-triethylbenzene] had a flash point in data set [2] of 79 °C.
Take `Cc1cc(C)cc(C)c1` [1,3,5-trimethylbenzene]: in data set [2], the flash point amounted to 44.1 °C.
The same measure, in the same setting: the same measure for `CCCCc1cccc(CCCC)c1` [1,3-dibutylbenzene]: 109.2 °C.
Consider `CC1=CC(C)CCC1` (centres undefined) [1,3-dimethylcyclohexene], for which the flash point turned out to be 12 °C.
`CC(C)(C)c1ccc(C(C)(C)C)cc1` [1,4-di-tert -butylbenzene] yielded a flash point in data set [2] of 97.0 °C.
As for `CCC(C)(C)CCl` [1-Chloro-2,2-dimethylbutane], the flash point in data set [3] turned out to be 19.1 °C.
The same measure, in the same setting: the same measure for `CCC(C)CCl` (centres undefined) [1-Chloro-2-methylbutane]: 10 °C; for `CCCC(C)CCl` (centres undefined) [1-Chloro-2-methylpentane]: 25.1 °C.
The same measure, in the same setting: as for `CCCC(C)CCCl` (centres undefined) [1-Chloro-3-methylhexane], the figure is 39.2 °C; as for `CCC(C)CCCl` (centres undefined) [1-Chloro-3-methylpentane], 25.1 °C.
In the case of `CCCCCl` [1-Chlorobutane], the flash point in data set [3] was -11.0 °C; in data set [4] it was -9.3 °C.
In data set [3], `CCCCCCCCl` [1-Chloroheptane] yielded a flash point of 41.8 °C.
The same measure, in the same setting: as for `CCCCCCCCCCCCCCCCCl` [1-Chlorohexadecane], the figure is 138.2 °C; as for `CCCCCCCl` [1-Chlorohexane], 26.8 °C; as for `CCCCCCCCCl` [1-Chlorooctane], 61.1 °C.
Same read-out and setting: the same measure for `CCCCCCCCCCCCl` [1-Chloroundecane]: 94.5 °C.
Molecule `CCC(C)(C)C(C)(C)C` [2,2,3,3-tetramethylpentane] displayed a flash point of 16 °C.
The same measure, in the same setting: the same measure for `CCCCC(C)(C)C` [2,2-dimethylhexane]: -3 °C; for `CCCCCCC(C)(C)C` [2,2-dimethyloctane]: 31 °C; for `CCCCCC(C)C(C)C` (centres undefined) [2,3-dimethyloctane]: 36 °C.
On the same count and under the same terms, as for `CCC(C)CCC(C)C` (centres undefined) [2,5-dimethylheptane], the figure is 15 °C.
In data set [3], `CCC(C)C(C)(C)Cl` (centres undefined) [2-Chloro-2,3-dimethylpentane] had a flash point of 29.8 °C.
In the case of `CC(C)(C)CC(C)(C)Cl` [2-Chloro-2,4,4-trimethylpentane], in data set [3], the flash point is 38.4 °C.
Take `CCCCCC(C)(C)Cl` [2-Chloro-2-methylheptane]: the flash point in data set [3] stood at 47.2 °C.
On the same count and under the same terms, as for `CCCCCCCC(C)(C)Cl` [2-Chloro-2-methylnonane], the figure is 72.2 °C.
Still for that read-out and setting: the same measure for `CCCC(C)(C)Cl` [2-Chloro-2-methylpentane]: 21 °C; for `CCCCCCCCC(C)Cl` (centres undefined) [2-Chlorodecane]: 77.1 °C; for `CCCCC(C)Cl` (centres undefined) [2-Chlorohexane]: 25.1 °C.
The same measure, in the same setting: as for `CCCCCCCC(C)Cl` (centres undefined) [2-Chlorononane], the figure is 65.2 °C.
In turn, `C=C(CC)CC` [2-ethyl-1-butene] gave a flash point of -26 °C. In addition, in data set [1], the flash point was -20 °C.
`CC#CCCCC` [2-heptyne] returned a flash point of 2 °C. Besides, the flash point in data set [5] amounted to 8 °C.
In turn, `C=C(C)CC` [2-methyl-1-butene] gave a flash point of -47 °C. The molecule also yielded a flash point in data set [1] of -34 °C.
Turning to `CCCCCCC(C)C` [2-methyloctane], the flash point turned out to be 24 °C.
The molecule `C1=CC2CCC1C2` [2-norbornene] had a flash point of -14 °C. The flash point in data set [1] is -15 °C.
For the molecule `CCC(CC)CCl` [3-(Chloromethyl)pentane], in data set [3], the flash point worked out at 25.1 °C.
Turning to `CCCC(C)(Cl)C(C)(C)C` (centres undefined) [3-Chloro-2,2,3-trimethylhexane], the flash point in data set [3] is 51.7 °C.
The same measure, in the same setting: as for `CCCC(C)(Cl)C(C)C` (centres undefined) [3-Chloro-2,3-dimethylhexane], the figure is 43.6 °C; as for `CCC(Cl)(CC)CC` [3-Chloro-3-ethylpentane], 33.6 °C.
The same measure, in the same setting: as for `CCCCC(C)(Cl)CC` (centres undefined) [3-Chloro-3-methylheptane], the figure is 47.2 °C.
The same measure, in the same setting: as for `CCCCCCC(C)(Cl)CC` (centres undefined) [3-Chloro-3-methylnonane], the figure is 72.2 °C; as for `CCC(C)(Cl)CC` [3-Chloro-3-methylpentane], 9.5 °C; as for `CCCCC(Cl)CC` (centres undefined) [3-Chloroheptane], 39.2 °C.
`CCCC(Cl)CC` (centres undefined) [3-Chlorohexane] yielded a flash point in data set [3] of 25.1 °C.
`C=CC(CC)CCC` (centres undefined) [3-ethyl-1-hexene]: the flash point was determined as 1 °C.
The same measure, in the same setting: the same measure for `C=CC(CC)CC` [3-ethyl-1-pentene]: -17 °C; for `CCC(C(C)C)C(C)C` [3-ethyl-2,4-dimethylpentane]: 15 °C.
Same read-out and setting: the same measure for `CC=C(CC)CC` [3-ethyl-2-pentene]: -6 °C; for `C=CC(C)CCC` (centres undefined) [3-methyl-1-hexene]: -18 °C; for `C=CCC(C)CCC` (centres undefined) [4-methyl-1-heptene]: 2 °C.
The same measure, in the same setting: the same measure for `CCCC(C)CCC` [4-methylheptane]: 5 °C; for `CCCC(CCC)CCC` [4-propylheptane]: 41 °C.
Regarding `CCCCC(Cl)CCCC` [5-Chlorononane], the flash point in data set [3] was 65.2 °C.
Still for that read-out and setting: the same measure for `CCCCCCCCC(Cl)CCCC` (centres undefined) [5-Chlorotridecane]: 110.1 °C; for `CCC[C@H](Cl)CCCC(C)C` [(S)-6-Chloro-2-methylnonane]: 73.8 °C.
`C=CCC1CCCCC1` [allylcyclohexane] came in with a flash point of 29 °C.
Same read-out and setting: as for `C1CCC(C2CCCCC2)CC1` [bicyclohexyl], the figure is 92 °C.
For `C[C@@H]1CCC[C@H](C)C1` [cis-1,3-dimethylcyclohexane], the flash point stood at 6 °C. In addition, the flash point in data set [1] stood at 5 °C.
In turn, `C/C=C\CCCC` [cis-2-heptene] registered a flash point of -8 °C.
Still for that read-out and setting: the same measure for `CC/C=C\CCC` [cis-3-heptene]: -9 °C; for `C/C=C\C(C)C` [cis-4-methyl-2-pentene]: -36 °C.
On the same count and under the same terms, as for `C1CC[C@H]2CCCC[C@H]2C1` [cis-decalin], the figure is 58 °C.
On the same count and under the same terms, the same measure for `CC(C)C1CCCC1` [isopropylcyclopentane]: 14 °C.
For the molecule `CCCCc1ccccc1` [n-butylbenzene], the flash point came out at 50 °C. The molecule further showed a flash point in data set [1] of 59 °C.
Regarding `CCCCC1CCCC1` [n-butylcyclopentane], the flash point turned out to be 35 °C.
Still for that read-out and setting: as for `CCCCCC1CCCCC1` [n-pentylcyclohexane], the figure is 66 °C; as for `CCCC1CCCC1` [propylcyclopentane], 16 °C.
In the case of `C/C=C/CCC` [trans-2-hexene], the flash point is -27 °C. Moreover, the flash point in data set [1] is -20 °C.
Consider `CC/C=C/CC` [trans-3-hexene], for which the flash point was -25 °C.
